Reference: patent publication US20250120951A1, “CLEMIZOLE FORMULATION” (EPYGENIX THERAPEUTICS, INC., priority 2021, published 2025)
Values joined by “and” are separate entries in the source; they are usually repeats but may differ in a detail not shown here. Equal values may be shown once. Where a name gives a salt, the structure may show the parent alone. Read-outs that look alike come from different tables or passages of the source.

Key:
[1] = Solubility testing for clemizole HCl in solvent systems (Example 1); format: physicochemical
Protocol: Solubility testing for clemizole HCl in a compatible solvent system was conducted to identify a buffer system that solubilized the required concentration of clemizole HCl without any precipitation. […] Actual clemizole HCl solubility values in each of the solvent systems are described in Table 1.

[2] = Excipient compatibility: clemizole HCl assay and total related substances, 14 days at 50° C. (Example 4); format: physicochemical
Protocol: In an example, various excipients were examined at the 14-day time point (50° C.) to guide the decision on the choice of excipients to be used during formulation development. Table 5 below illustrates the stability of clemizole HCl at day 14 following incubation in the various formulations listed.
However, due to the poor solubility of ethyl parahydroxybenzoate, either a solubilizer such as PEG400, or a soluble form of ethyl parahydroxybenzoate, such as the sodium salt, would be required. Glycerol was compatible with clemizole HCl and may be used to improve the taste formulation.

Clc1ccc(Cn2c(CN3CCCC3)nc3ccccc32)cc1 [clemizole HCl]
solubility ([1]; 0.1 M HCl, simulated gastric fluid, 0.1M HCl 100% w/w, read-out: Actual Solubility): 11 mg/mL
solubility ([1]; Solutol HS15 solution, 40 °C, aqueous with cosolvent or surfactant or cyclodextrin, 20% w/w solution of Solutol HS15 at 40° C., read-out: solubility of clemizole HCl): 36 mg/mL
solubility ([1]; citrate buffer, pH 4.5, aqueous buffer, pH 4.5 Citrate Buffer 100% w/w, read-out: Actual Solubility): 12.7 mg/mL
solubility ([1]; citrate buffer, pH 4.5, aqueous with cosolvent or surfactant or cyclodextrin, pH 4.5 Citrate Buffer 79.5 / PEG400 20.0 / Sodium ascorbate 0.5 % w/w, read-out: Actual Solubility): 9.29 mg/mL
solubility ([1]; citrate buffer, pH 4.5, aqueous with cosolvent or surfactant or cyclodextrin, pH 4.5 Citrate Buffer 80.0 / Glycerol 20.0 % w/w, read-out: Actual Solubility): 13.5 mg/mL
solubility ([1]; citrate buffer, pH 4.5, aqueous with cosolvent or surfactant or cyclodextrin, pH 4.5 Citrate Buffer 80.0 / Propylene glycol 20.0 % w/w, read-out: Actual Solubility): 11.4 mg/mL
solubility ([1]; citrate buffer, pH 4.5, aqueous with cosolvent or surfactant or cyclodextrin, pH 4.5 Citrate Buffer 90.0 / 2-Hydroxypropyl-β-cyclodextrin 10.0 % w/w, read-out: Actual Solubility): 29.9 mg/mL
solubility ([1]; citrate buffer, pH 4.5, aqueous with cosolvent or surfactant or cyclodextrin, pH 4.5 Citrate Buffer 94.5 / Polysorbate 20 5.0 / Sodium ascorbate 0.5 % w/w, read-out: Actual Solubility): 21.4 mg/mL
solubility ([1]; citrate buffer, pH 4.5, aqueous with cosolvent or surfactant or cyclodextrin, pH 4.5 Citrate Buffer 94.5 / Polysorbate 80 5.0 / Sodium ascorbate 0.5 % w/w, read-out: Actual Solubility): 24.6 mg/mL
solubility ([1]; citrate buffer, pH 4.5, aqueous with cosolvent or surfactant or cyclodextrin, pH 4.5 Citrate Buffer 95.0 / Cremophor ELP 5.0 % w/w, read-out: Actual Solubility): 19.1 mg/mL
solubility ([1]; citrate buffer, pH 4.5, aqueous with cosolvent or surfactant or cyclodextrin, pH 4.5 Citrate Buffer 95.0 / Cremophor RH40 5.0 % w/w, read-out: Actual Solubility): 19.7 mg/mL
solubility ([1]; citrate buffer, pH 4.5, aqueous with cosolvent or surfactant or cyclodextrin, pH 4.5 Citrate Buffer 95.0 / Solutol HS15 5.0 % w/w, read-out: Actual Solubility): 19.8 mg/mL
solubility ([1]; citrate buffer, pH 4.5, aqueous with cosolvent or surfactant or cyclodextrin, pH 4.5 Citrate Buffer 95.0 / TPGS 5.0 % w/w, read-out: Actual Solubility): 25.9 mg/mL
effect of freeze-thawing on clemizole HCl solubility ([1]; freeze-thawing): does not appear to reduce
solubility ([1]; phosphate buffer, pH 6.8, aqueous buffer, pH 6.8 Phosphate Buffer 100% w/w, read-out: Actual Solubility): 0.06 mg/mL
solubility ([1]; phosphate buffer, pH 6.8, aqueous with cosolvent or surfactant or cyclodextrin, pH 6.8 Phosphate Buffer 79.5 / PEG400 20.0 / Sodium ascorbate 0.5 % w/w, read-out: Actual Solubility): 0.28 mg/mL
solubility ([1]; phosphate buffer, pH 6.8, aqueous with cosolvent or surfactant or cyclodextrin, pH 6.8 Phosphate Buffer 80.0 / Glycerol 20.0 % w/w, read-out: Actual Solubility): 0.07 mg/mL
solubility ([1]; phosphate buffer, pH 6.8, aqueous with cosolvent or surfactant or cyclodextrin, pH 6.8 Phosphate Buffer 80.0 / Propylene glycol 20.0 % w/w, read-out: Actual Solubility): 0.08 mg/mL
Assay Results (%) 50° C., 14 day Mean ([2]; 50° C., 14 day, mean): 100.9%
Assay Results (%) 50° C., 14 day ([2]; 50° C., 14 day, single replicates, listed as API only, HCl): 101.1% and 100.7%
Assay Results (%) Initial Mean ([2]; Initial, mean): 100.5%
Assay Results (%) Initial ([2]; Initial, single replicates, listed as API only, HCl): 100.0% and 101.0%
